# Experimental data published in patent US20100099614A1, “Antimicrobial Peptides and Methods of Use” (priority 2008, published 2010).
# Values joined by “and” are separate entries in the source; they are usually repeats but may differ in a detail not shown here. Identical values can stand only once. Like-named read-outs stand apart in the source and are kept apart here.
# B1: Peptide D1, D-(V13K) (peptide)
# peptide: KWKSFLKTFKSAKKTVLHTALKAISS
# modifications: all residues D-amino acids; N-terminal Nα-acetyl; C-terminal amide
# B2: Peptide D5, D-(V13K, A12L, A20L, A23L, V16K) (peptide)
# peptide: KWKSFLKTFKSLKKTKLHTLLKLISS
# modifications: all residues D-amino acids; N-terminal Nα-acetyl; C-terminal amide
# B3: Control peptide C (random coil peptide) (peptide)
# peptide: Ac-ELEKGGLEGEKGGKELEK-NH2
# Columns and labels:
# [1] = test system: Mycobacterium tuberculosis strain H37Rv; assay: microbe, parasite or virus in culture
# [2] = 50% trifluoroethanol (TFE), 5° C.; cited from earlier work
# Ascomycota fungi = settings: Ascomycota fungi
# human red blood cells = assay: Hemolytic activity (MHC50/HC50), 18 h microtiter dilution; format: cell-based; settings: red cells of human, 18 h
# Procedure: Hemoglobin release was determined spectrophotometrically at 570 nm. […] MHC50 was determined by plot the concentration-lysis format.
# [3] = Helical structure by circular dichroism spectroscopy; format: physicochemical; settings: 222 nm
# Procedure: The mean residue molar ellipticities of peptides were determined by circular dichroism (CD) spectroscopy, using a Jasco J-810 spectropolarimeter (Easton, Md.) at 5° C. under benign (non-denaturing) conditions (50 mM NaH2PO4/Na2HPO4/100 mM KCl, pH 7.0), hereafter referred to as benign buffer, as well as in the presence of an α-helix inducing solvent, 2,2,2-trifluoroethanol, TFE, (50 mM NaH2PO4/Na2HPO4/[…], pH 7.0 buffer/50% TFE). A 10-fold dilution of an approximately […] stock solution of the peptide analogs was loaded into a 0.1 cm quartz cell and its ellipticity scanned from 195 to 250 nm. The values of molar ellipticities of the peptide analogs at a wavelength of 222 nm were used to estimate the relative α-helicity of the peptides.
# Interleukin-6 (IL-6) = assay: Cytokine assay, stimulation of peripheral blood mononuclear cells, ELISA; format: cell-based, human
# Procedure: (§1) Isolation of peripheral blood mononuclear cells (PBMCs) from 5 healthy individuals was performed as described elsewhere (108). Briefly, venous blood was drawn into 10 ml tubes containing 0.2 mg of EDTA (Monoject's-Hertogenbosch, NL). The PBMC fraction was obtained by density centrifugation of blood using Ficoll-Paque (Pharmacia Biotech AB, Sweden). […] The PBMCs were incubated in 96-well tissue culture plates (Greiner, Alphen, NL) at a concentration of 5×10^5 cells per well in a total volume of 200 μl, in the presence or absence of a set of stimuli in different experiments. […] After 24 h of incubation, the supernatants were collected and stored at -80° C. until analysis. Interleukin-6 (IL-6) and tumor necrosis factor (TNF) were measured by ELISA according to the manufacturer's protocol ([…], CLB, Amsterdam, NL). […] Agilent Technologies) with a linear AB gradient (0.2% acetonitrile/min) at a flow rate of 2 ml/min, where mobile phase A was 0.1% aqueous TFA in water and B was 0.1% TFA in acetonitrile. The purity of peptides was verified by analytical RP-HPLC. The peptides were further characterized by electrospray mass spectrometry and amino acid analysis.
# [4] = test system: tumor necrosis factor (TNF); assay: as above; format: cell-based, human
# Procedure: as §1
# [5] = test system: Mycobacterium tuberculosis strain H37Rv
# Gram-negative bacteria = assay: Antibacterial activity (MIC), microtiter dilution; format: cell-based
# Procedure: MICs were determined by a standard microtiter dilution method in Mueller Hinton Broth (MHB). Serial dilutions of the 10× compound were added to the microtiter plates in a volume of 10 μL followed by 90 μL of bacteria for an inoculum of 5×10^5 colony-forming units (CFU)/mL. The plates were incubated at 37° C. for 24 h, and the MICs were determined as the lowest peptide concentration that inhibited growth. […]
# Alternatively; minimal inhibitory concentrations were determined using a standard microtiter dilution method in a Mueller-Hinton (MH) medium. Briefly, cells were grown overnight at 37° C. in MH broth and diluted in the same medium. Serial dilutions of the peptides were added to the microtiter plates in a volume of 100 μl followed by 10 μl of bacteria for an initial cell concentration of 1×10^5 CFU/ml. Plates were incubated at 37° C. for 24 hours and MICs determined as the lowest peptide concentration that inhibited growth.
# [6] = Peptide hydrophobicity by RP-HPLC retention; format: physicochemical; settings: pH 2, room temperature
# Procedure: Peptide Synthesis and Purification—Syntheses of the peptides were carried out by solid-phase peptide synthesis using t-butyloxycarbonyl chemistry and MBHA (4-methylbenzhydrylamine) resin (0.97 mmol/g), followed by cleavage of the peptide from the resin as described previously (117-119). However, it is understood in the art that there are other suitable instruments and methods for automated or manual peptide synthesis that could be employed to produce the peptides described herein. Peptide purification was performed by reversed-phase high-performance liquid chromatography (RP-HPLC) on a Zorbax 300 SB-C8 column (250×9.4 mm I.D.; 6.5 μm particle size, 300 Å pore size; Agilent Technologies, Little Falls, Del.) with a linear AB gradient (0.1% acetonitrile/min) at a flow rate of 2 mL/min, where eluent A was 0.2% aqueous trifluoroacetic acid (TFA), pH 2, and eluent B was 0.2% TFA in acetonitrile, where the shallow 0.1% acetonitrile/min gradient started 12% below the acetonitrile concentration required to elute the peptide on injection of analytical sample using a gradient of 1% acetonitrile/min (113). The purity of the peptides was verified by analytical RP-HPLC as described below and further characterized by mass spectrometry and amino acid analysis. Crude and purified peptides were analyzed on an Agilent 1100 series liquid chromatograph. Runs were performed on a Zorbax 300 SB-C8 column (150×2.1 mm I.D.; 5 μm particle size, 300 Å pore size) from Agilent Technologies using a linear AB gradient (1% acetonitrile/min) and a flow rate of 0.25 mL/min, where eluent A was 0.2% aqueous TFA, pH 2, and eluent B was 0.2% TFA in acetonitrile.
# Analytical RP-HPLC of Peptides—Peptides were analyzed on an Agilent 1100 series liquid chromatograph (Little Falls, Del.). Runs were performed on a Zorbax 300 SB-C8 column (150×2.1 mm I.D.; 5 μm particle size, 300 Å pore size) from Agilent Technologies using linear AB gradient (1% acetonitrile/min) and a flow rate of 0.25 ml/min, where solvent A was 0.05% aqueous TFA, pH 2 and solvent B was 0.05% TFA in acetonitrile. Temperature profiling analyses were performed in 3° C. increments, from 5° C. to 80° C.
# Peptide D1, D-(V13K) = assay: RP-HPLC temperature profiling at pH 2, maximal retention time difference against control peptide C; self-association
# [7] = biological target: Peptide D5, D-(V13K, A12L, A20L, A23L, V16K); assay: as above
# [8] = biological target: the molecule itself; assay: RP-HPLC temperature profiling, 5 to 80 C, pH 2 (self-association)
# Procedure: Thus, if the self-association ability of a peptide in aqueous media is too strong (e.g., forming stable folded dimers through interaction of their non-polar faces) this could decrease the ability of the peptide to dissociate to monomer where the dimer cannot effectively pass through the capsule and cell wall to reach the membrane. The ability of the peptides in the present study to self-associate was determined by the technique of RP-HPLC temperature profiling at pH 2 (30,29,42). The reason pH 2 is used to determine self-association of cationic AMPs is that highly positively charged peptides are frequently not eluted from reversed-phase columns at pH 7 due to non-specific binding to negatively charged silanols on the column matrix. This is not a problem at pH 2 since the silanols are protonated (i.e., neutral) and non-specific electrostatic interactions are eliminated. At pH 2, the interactions between the peptide and the reversed-phase matrix involve ideal retention behavior, i.e., only hydrophobic interactions between the preferred binding domain (nonpolar face) of the amphipathic molecule and the hydrophobic surface of the column matrix are present (39). […]
# [9] = peptide concentration 0.01 μg/ml
# [10] = peptide concentration 100 μg/ml
molecule,measurement,setting,value
CO[C@H]1/C=C/O[C@@]2(C)Oc3c(C)c(O)c4c(O)c(c(/C=N/N5CCN(C)CC5)c(O)c4c3C2=O)NC(=O)/C(C)=C\C=C\[C@H](C)[C@H](O)[C@@H](C)[C@@H](O)[C@@H](C)[C@H](OC(C)=O)[C@@H]1C [rifampin],MIC,"[1]; 168 h, read-out: Anti-tuberculosis activity MIC",0.033 µM and 0.027 µg/mL
same,MIC,[1]; read-out: Anti-tuberculosis activity to H37Rv strain MIC,0.033 µM and 0.027 µg/mL
Ac-ELEKGGLEGEKGGKELEK-amide (Ac-ELEKGGLEGEKGGKELEK-NH2) [peptide C],[θ]222,[2],"−3,950"
CC[C@@H](C)[C@@H](NC(=O)[C@@H](CC(C)C)NC(=O)[C@@H](CCCCN)NC(=O)[C@@H](CC(C)C)NC(=O)[C@@H](CC(C)C)NC(=O)[C@H](NC(=O)[C@@H](Cc1c[nH]cn1)NC(=O)[C@@H](CC(C)C)NC(=O)[C@@H](CCCCN)NC(=O)[C@H](NC(=O)[C@@H](CCCCN)NC(=O)[C@@H](CCCCN)NC(=O)[C@@H](CC(C)C)NC(=O)[C@@H](CO)NC(=O)[C@@H](CCCCN)NC(=O)[C@@H](Cc1ccccc1)NC(=O)[C@H](NC(=O)[C@@H](CCCCN)NC(=O)[C@@H](CC(C)C)NC(=O)[C@@H](Cc1ccccc1)NC(=O)[C@@H](CO)NC(=O)[C@@H](CCCCN)NC(=O)[C@@H](Cc1c[nH]c2ccccc12)NC(=O)[C@@H](CCCCN)NC(C)=O)[C@H](C)O)[C@H](C)O)[C@H](C)O)C(=O)N[C@H](CO)C(=O)N[C@H](CO)C(N)=O [D5],"MIC GM (geometric mean of the MIC values), Gram-positive bacteria",Gram-positive bacteria; 24 h,9.0 µg/mL
same,increase in antibacterial activity compared to D4,Gram-positive bacteria; gram-positive bacteria,2 fold
same,"Fold improvement in antimicrobial activity (geometric mean data) compared to that of D4, Gram-positive bacteria",Gram-positive bacteria; relative to D4,1.8 fold
same,increase in antifungal activity relative to D4,Zygomycota fungi; Zygomycota fungi,16 fold
same,"Fold improvement in antifungal activity (geometric mean data) compared to that of D4, Zygomycota fungi",Zygomycota fungi; relative to D4,16.0 fold
same,antifungal activity relative to D4,Ascomycota fungi,maintained the same level
same,Hemolytic activity HC50,human red blood cells,14.9 µM
same,50% TFE [θ]222 (mean residue molar ellipticity),[3]; benign buffer containing 50% trifluoroethanol,"35,500 deg cm^2/dmol"
same,Benign [θ]222 (mean residue molar ellipticity),"[3]; benign conditions (100 mM KCl, 50 mM NaH2PO4/Na2HPO4, pH 7.0)","3,700 deg cm^2/dmol"
same,IL-6 Exp 1,Interleukin-6 (IL-6); [9],<3 pg/mL
same,IL-6 Exp 2,Interleukin-6 (IL-6); [9],<3 pg/mL
same,IL-6 Exp 1,Interleukin-6 (IL-6); peptide concentration 1 μg/ml,<3 pg/mL
same,IL-6 Exp 1,Interleukin-6 (IL-6); [10],<3 pg/mL
same,IL-6 Exp 2,Interleukin-6 (IL-6); [10],<3 pg/mL
same,TNF Exp 1,[4]; [9],<0.015 ng/mL
same,TNF Exp 2,[4]; [9],<0.015 ng/mL
same,TNF Exp 1,[4]; peptide concentration 1 μg/ml,<0.015 ng/mL
same,TNF Exp 2,[4]; peptide concentration 1 μg/ml,<0.015 ng/mL
same,reduction in viability (CFU/ml),"[5]; 100 μg/ml (31.7 μM), 7 days incubation vs day 0",about 100 fold
same,Anti-tuberculosis activity to H37Rv strain Fold (compared to D4),"[5]; further experiments, relative to D4",4.9 fold
same,increase in antibacterial activity compared to D4,Gram-negative bacteria; gram-negative bacteria,2 fold
same,"Fold improvement in antimicrobial activity (geometric mean data) compared to that of D4, Gram-negative bacteria",Gram-negative bacteria; relative to D4,2.2 fold
same,"MIC GM (geometric mean of the MIC values), Gram-negative bacteria","Gram-negative bacteria; six Gram-negative strains, 128 μg/mL used where no activity at 64 μg/mL",10.1 µg/mL
same,Hydrophobicity tR (retention time in RP-HPLC),[6],80.4 min
B1,PA (dimerization / self-association parameter),"Peptide D1, D-(V13K)",2.78
B2,PA (dimerization / self-association parameter),[7],4.35
B3,binding result,[8],no binding
